Assay results from ChEMBL document CHEMBL3112424, “Discovery and optimization of pyrimidone indoline amide PI3Kβ inhibitors for the treatment of phosphatase and tensin homologue (PTEN)-deficient cancers” (J Med Chem, 2014).
Values after ≈ are worked out from the molar mass of the structure shown.

Columns and labels:
[1] = Half life in Beagle dog at 10 mg/kg, po; format: ADME, organism-based, Canis lupus familiaris; design: dose 10 mg/kg, route oral; settings: in vivo
[2] = AUC (infinity) in Balb/c mouse plasma at 10 mg/kg, po by LC-MS/MS analysis; format: ADME, organism-based; design: time infinity, dose 10 mg/kg, route oral
[3] = Apparent terminal half life in Balb/c mouse plasma at 100 mg/kg, po by LC-MS/MS analysis; format: ADME, organism-based; design: dose 100 mg/kg, route oral; settings: read-out: betat1/2(app) (converted)
[4] = molecular target: Phosphatidylinositol 4-phosphate 3-kinase C2 domain-containing subunit beta (Homo sapiens, UniProt O00750); assay: Inhibition of PI3KC2beta (unknown origin)
Chain of Phosphatidylinositol 4-phosphate 3-kinase C2 domain-containing subunit beta (O00750 whole entry, the tested form may be a part): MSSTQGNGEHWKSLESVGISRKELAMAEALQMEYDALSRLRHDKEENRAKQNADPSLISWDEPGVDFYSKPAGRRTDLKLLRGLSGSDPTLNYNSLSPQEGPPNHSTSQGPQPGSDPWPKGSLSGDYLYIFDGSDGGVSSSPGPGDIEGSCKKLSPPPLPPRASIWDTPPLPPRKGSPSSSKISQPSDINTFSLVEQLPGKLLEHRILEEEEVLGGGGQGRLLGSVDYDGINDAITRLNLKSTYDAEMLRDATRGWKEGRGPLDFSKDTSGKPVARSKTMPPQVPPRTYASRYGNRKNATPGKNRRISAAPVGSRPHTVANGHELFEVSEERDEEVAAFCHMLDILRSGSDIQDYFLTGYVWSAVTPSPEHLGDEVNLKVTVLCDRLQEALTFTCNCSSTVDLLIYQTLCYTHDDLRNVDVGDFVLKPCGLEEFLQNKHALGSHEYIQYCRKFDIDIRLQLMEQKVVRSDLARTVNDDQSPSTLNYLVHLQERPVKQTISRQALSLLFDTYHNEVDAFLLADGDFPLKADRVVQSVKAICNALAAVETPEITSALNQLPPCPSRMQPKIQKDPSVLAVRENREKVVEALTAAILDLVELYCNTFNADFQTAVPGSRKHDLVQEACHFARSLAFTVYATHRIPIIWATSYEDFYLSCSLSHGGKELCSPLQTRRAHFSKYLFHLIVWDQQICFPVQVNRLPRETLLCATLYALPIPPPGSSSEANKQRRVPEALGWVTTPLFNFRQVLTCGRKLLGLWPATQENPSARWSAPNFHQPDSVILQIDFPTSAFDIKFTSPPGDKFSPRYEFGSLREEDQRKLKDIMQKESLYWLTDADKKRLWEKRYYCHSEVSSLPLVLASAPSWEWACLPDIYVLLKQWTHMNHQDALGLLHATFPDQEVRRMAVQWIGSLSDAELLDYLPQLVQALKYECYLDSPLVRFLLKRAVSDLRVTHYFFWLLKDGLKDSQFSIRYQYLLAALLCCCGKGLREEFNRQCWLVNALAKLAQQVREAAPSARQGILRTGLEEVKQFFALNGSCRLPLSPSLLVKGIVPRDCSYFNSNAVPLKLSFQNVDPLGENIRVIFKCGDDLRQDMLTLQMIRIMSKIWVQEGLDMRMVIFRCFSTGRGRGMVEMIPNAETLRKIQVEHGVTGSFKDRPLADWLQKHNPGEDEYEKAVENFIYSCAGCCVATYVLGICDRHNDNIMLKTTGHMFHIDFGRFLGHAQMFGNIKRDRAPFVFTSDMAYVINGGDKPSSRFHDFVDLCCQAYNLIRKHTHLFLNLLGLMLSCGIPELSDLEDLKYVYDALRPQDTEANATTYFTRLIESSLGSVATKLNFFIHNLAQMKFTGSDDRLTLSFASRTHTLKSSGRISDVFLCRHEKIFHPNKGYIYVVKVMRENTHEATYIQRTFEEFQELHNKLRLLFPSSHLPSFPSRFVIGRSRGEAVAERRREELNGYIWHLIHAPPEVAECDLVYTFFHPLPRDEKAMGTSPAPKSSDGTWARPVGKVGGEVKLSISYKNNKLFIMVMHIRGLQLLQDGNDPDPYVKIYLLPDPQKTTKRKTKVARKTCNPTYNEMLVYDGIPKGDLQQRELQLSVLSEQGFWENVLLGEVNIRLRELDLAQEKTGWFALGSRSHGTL

[5] = AUC (infinity) in Beagle dog at 3 mg/kg, iv; format: ADME, organism-based, Canis lupus familiaris; design: time infinity, dose 3 mg/kg, route intravenous; settings: plasma
[6] = molecular target: T1, Phosphatidylinositol 4,5-bisphosphate 3-kinase catalytic subunit beta isoform (Homo sapiens, UniProt P42338); settings: PC-3
Target sequence in this assay (P42338 whole entry, looked up, canonical isoform): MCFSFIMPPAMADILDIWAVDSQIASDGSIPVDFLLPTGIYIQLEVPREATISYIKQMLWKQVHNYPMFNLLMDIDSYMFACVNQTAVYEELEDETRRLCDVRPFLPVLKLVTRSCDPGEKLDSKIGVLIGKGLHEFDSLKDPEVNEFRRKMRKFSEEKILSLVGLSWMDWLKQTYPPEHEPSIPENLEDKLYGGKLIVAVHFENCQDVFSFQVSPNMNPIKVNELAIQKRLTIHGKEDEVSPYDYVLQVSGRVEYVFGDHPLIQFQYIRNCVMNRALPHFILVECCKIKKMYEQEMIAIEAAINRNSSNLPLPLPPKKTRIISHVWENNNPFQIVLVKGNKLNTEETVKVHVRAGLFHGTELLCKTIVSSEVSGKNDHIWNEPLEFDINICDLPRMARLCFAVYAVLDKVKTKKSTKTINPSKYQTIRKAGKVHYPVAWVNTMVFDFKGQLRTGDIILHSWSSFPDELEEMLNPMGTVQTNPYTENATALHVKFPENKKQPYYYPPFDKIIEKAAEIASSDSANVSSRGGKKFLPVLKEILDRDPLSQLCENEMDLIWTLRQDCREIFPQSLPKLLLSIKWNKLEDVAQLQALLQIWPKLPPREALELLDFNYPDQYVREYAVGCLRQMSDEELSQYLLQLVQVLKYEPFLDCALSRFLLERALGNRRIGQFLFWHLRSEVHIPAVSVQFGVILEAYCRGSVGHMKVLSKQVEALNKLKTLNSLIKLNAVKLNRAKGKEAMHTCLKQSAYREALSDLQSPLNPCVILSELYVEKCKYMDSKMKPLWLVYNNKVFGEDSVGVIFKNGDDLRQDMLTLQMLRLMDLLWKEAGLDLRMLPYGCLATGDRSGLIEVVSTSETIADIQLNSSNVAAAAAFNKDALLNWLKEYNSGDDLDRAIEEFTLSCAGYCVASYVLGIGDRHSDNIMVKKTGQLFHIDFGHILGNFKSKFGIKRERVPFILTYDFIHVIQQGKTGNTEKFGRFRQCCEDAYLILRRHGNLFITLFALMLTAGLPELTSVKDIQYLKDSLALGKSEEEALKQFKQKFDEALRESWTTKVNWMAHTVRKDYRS
Description: Inhibition of PI3Kbeta-mediated Akt phosphorylation at S473 in PTEN-deficient human PC3 cells after 0.5 to 2 hrs by Immunoblotting assay

[7] = AUC (infinity) in nude rat at 10 mg/kg, po; format: ADME, organism-based; design: time infinity, dose 10 mg/kg, route oral; settings: plasma
[8] = Cmax in Balb/c mouse plasma at 100 mg/kg, po by LC-MS/MS analysis; format: ADME, organism-based; design: dose 100 mg/kg, route oral
[9] = Oral bioavailability in Beagle dog at 10 mg/kg; format: ADME, organism-based, Canis lupus familiaris; settings: in vivo
[10] = Volume of distribution at steady state in Balb/c mouse plasma at 3 mg/kg, iv by LC-MS/MS analysis; format: ADME, organism-based; design: dose 3 mg/kg, route intravenous; settings: read-out: Vdss
[11] = molecular target: Serine/threonine-protein kinase mTOR (Homo sapiens, UniProt P42345); assay: Inhibition of mTOR (unknown origin)
[12] = Metabolic stability in mouse liver microsomes at 5 uM after 20 mins; settings: liver microsomes
[13] = Volume of distribution at steady state in nude rat at 3 mg/kg, iv; format: ADME, organism-based; design: dose 3 mg/kg, route intravenous; settings: in vivo, read-out: Vdss
[14] = Cmax in Beagle dog at 10 mg/kg, po; format: ADME, organism-based, Canis lupus familiaris; design: dose 10 mg/kg, route oral; settings: in vivo
[15] = Cmax in Balb/c mouse plasma at 10 mg/kg, po after 15 to 30 mins by LC-MS/MS analysis; format: ADME, organism-based; design: dose 10 mg/kg, route oral
[16] = Apparent terminal half life in Balb/c mouse plasma at 10 mg/kg, po by LC-MS/MS analysis; format: ADME, organism-based; design: dose 10 mg/kg, route oral; settings: read-out: betat1/2(app) (converted)
[17] = Oral bioavailability in Balb/c mouse plasma at 100 mg/kg by LC-MS/MS analysis; format: ADME, organism-based
[18] = AUC (infinity) in Beagle dog at 10 mg/kg, po; format: ADME, organism-based, Canis lupus familiaris; design: time infinity, dose 10 mg/kg, route oral; settings: plasma
[19] = Cmax in nude rat at 3 mg/kg, iv; format: ADME, organism-based; design: dose 3 mg/kg, route intravenous; settings: in vivo
[20] = Cmax in Balb/c mouse plasma at 3 mg/kg, iv by LC-MS/MS analysis; format: ADME, organism-based; design: dose 3 mg/kg, route intravenous
[21] = Volume of distribution at steady state in Beagle dog at 3 mg/kg, iv; format: ADME, organism-based, Canis lupus familiaris; design: dose 3 mg/kg, route intravenous; settings: in vivo, read-out: Vdss
[22] = Cmax in nude rat at 10 mg/kg, po; format: ADME, organism-based; design: dose 10 mg/kg, route oral; settings: in vivo
[23] = AUC (infinity) in Balb/c mouse plasma at 3 mg/kg, iv by LC-MS/MS analysis; format: ADME, organism-based; design: time infinity, dose 3 mg/kg, route intravenous
[24] = Plasma concentration in Balb/c mouse at 100 mg/kg, po measured for 5 hrs; format: ADME, organism-based; design: dose 100 mg/kg, route oral
[25] = Fraction unbound in SCID mouse plasma xenografted with PTEN-deficient human PC3 cells at 100 mg/kg, po; format: ADME, organism-based, PC-3; design: dose 100 mg/kg, route oral
[26] = Cmax in Beagle dog at 3 mg/kg, iv; format: ADME, organism-based, Canis lupus familiaris; design: dose 3 mg/kg, route intravenous; settings: in vivo
Mus musculus [27] = assay: Toxicity in SCID mouse xenografted with PTEN-deficient human PC3 cells assessed as body weight loss at 150 mg/kg, po bid; format: organism-based, PC-3; design: dose 150 mg/kg, route oral; settings: in vivo
[28] = molecular target: Phosphatidylinositol 4-phosphate 3-kinase C2 domain-containing subunit alpha (Homo sapiens, UniProt O00443); assay: Inhibition of PI3KC2alpha (unknown origin)
Chain of Phosphatidylinositol 4-phosphate 3-kinase C2 domain-containing subunit alpha (O00443 whole entry, the tested form may be a part): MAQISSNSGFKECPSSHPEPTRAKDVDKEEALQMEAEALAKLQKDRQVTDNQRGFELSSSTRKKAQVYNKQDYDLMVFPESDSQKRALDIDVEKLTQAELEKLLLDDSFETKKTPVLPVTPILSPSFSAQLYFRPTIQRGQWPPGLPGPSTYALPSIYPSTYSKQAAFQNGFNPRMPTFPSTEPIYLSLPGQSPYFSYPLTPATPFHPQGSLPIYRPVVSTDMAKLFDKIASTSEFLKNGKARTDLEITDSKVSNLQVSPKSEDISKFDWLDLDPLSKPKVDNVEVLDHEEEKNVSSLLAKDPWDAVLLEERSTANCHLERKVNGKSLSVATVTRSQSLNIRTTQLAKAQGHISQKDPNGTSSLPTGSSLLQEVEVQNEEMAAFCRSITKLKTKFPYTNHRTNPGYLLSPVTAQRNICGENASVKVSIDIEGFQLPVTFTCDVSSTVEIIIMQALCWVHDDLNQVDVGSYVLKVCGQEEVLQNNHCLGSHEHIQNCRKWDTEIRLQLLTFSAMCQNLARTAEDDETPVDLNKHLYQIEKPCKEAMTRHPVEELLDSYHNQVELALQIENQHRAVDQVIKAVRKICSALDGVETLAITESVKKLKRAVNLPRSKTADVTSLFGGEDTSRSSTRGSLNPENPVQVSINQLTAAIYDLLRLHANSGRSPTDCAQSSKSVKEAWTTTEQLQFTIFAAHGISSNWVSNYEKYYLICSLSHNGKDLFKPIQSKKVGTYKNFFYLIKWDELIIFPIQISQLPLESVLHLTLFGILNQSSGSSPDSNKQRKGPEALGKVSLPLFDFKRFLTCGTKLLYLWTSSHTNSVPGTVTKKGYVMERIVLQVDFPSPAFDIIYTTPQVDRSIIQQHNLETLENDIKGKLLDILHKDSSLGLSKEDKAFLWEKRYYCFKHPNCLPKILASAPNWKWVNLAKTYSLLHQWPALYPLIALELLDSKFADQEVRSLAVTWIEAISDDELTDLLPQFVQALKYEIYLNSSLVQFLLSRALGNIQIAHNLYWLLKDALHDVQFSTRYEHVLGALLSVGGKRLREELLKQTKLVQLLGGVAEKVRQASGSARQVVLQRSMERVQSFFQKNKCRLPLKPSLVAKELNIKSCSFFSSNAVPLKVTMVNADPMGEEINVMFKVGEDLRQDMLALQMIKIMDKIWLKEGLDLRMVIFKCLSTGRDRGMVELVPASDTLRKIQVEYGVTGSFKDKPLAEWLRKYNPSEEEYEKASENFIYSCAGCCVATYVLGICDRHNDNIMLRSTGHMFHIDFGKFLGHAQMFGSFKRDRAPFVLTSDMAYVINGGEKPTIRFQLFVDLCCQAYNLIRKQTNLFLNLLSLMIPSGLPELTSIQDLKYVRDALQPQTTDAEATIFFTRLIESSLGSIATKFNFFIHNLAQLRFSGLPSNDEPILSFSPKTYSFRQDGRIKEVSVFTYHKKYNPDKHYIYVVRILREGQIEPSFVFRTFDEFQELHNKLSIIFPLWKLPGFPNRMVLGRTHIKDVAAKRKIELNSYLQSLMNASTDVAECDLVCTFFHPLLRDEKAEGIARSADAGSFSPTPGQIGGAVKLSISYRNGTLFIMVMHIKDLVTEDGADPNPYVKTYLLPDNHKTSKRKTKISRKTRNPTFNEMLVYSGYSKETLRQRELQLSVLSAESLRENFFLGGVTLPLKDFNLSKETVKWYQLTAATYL

[29] = Clearance in Beagle dog at 3 mg/kg, iv; format: ADME, organism-based, Canis lupus familiaris; design: dose 3 mg/kg, route intravenous; settings: in vivo
[30] = molecular target: T1, Phosphatidylinositol 4,5-bisphosphate 3-kinase catalytic subunit beta isoform; assay: Inhibition of PI3Kbeta-mediated Akt phosphorylation at S473 in BRAF-V600E/PTEN-deficient human UACC62 cells; format: cell-based, UACC-62
Target sequence in this assay (P42338 whole entry, canonical isoform): as the sequence (P42338 whole entry, looked up, canonical isoform) above

[31] = molecular target: T1, Phosphatidylinositol 4,5-bisphosphate 3-kinase catalytic subunit beta isoform; settings: UACC-62
Target sequence in this assay (P42338 whole entry, looked up, canonical isoform): as above

Mus musculus [32] = assay: In vivo inhibition of PI3Kbeta in tumor of po dosed SCID mouse xenografted with BRAF-V600E/PTEN-deficient human UACC62 cells assessed as inhibition of Akt phosphorylation at S473; format: functional, organism-based; settings: UACC-62
[33] = Apparent permeability in human Caco2 cells at 5 uM after 20 mins; settings: Caco-2
[34] = Tmax in nude rat at 10 mg/kg, po; format: ADME, organism-based; design: dose 10 mg/kg, route oral; settings: in vivo
Mus musculus [35] = assay: Toxicity in SCID mouse xenografted with BRAF-V600E/PTEN-deficient human UACC62 cells at 150 mg/kg, po bid; format: organism-based, UACC-62; design: dose 150 mg/kg, route oral; settings: in vivo
[36] = AUC (infinity) in nude rat at 3 mg/kg, iv; format: ADME, organism-based; design: time infinity, dose 3 mg/kg, route intravenous; settings: plasma
[37] = Plasma concentration in Balb/c mouse at 100 mg/kg, po measured for 12 hrs; format: ADME, organism-based; design: dose 100 mg/kg, route oral
Mus musculus [38] = assay: In vivo inhibition of PI3Kbeta in tumor of SCID mouse xenografted with BRAF-V600E/PTEN-deficient human UACC62 cells assessed as inhibition of Akt phosphorylation at S473 at 200 mg/kg, po up to 6 hrs; format: functional; settings: UACC-62, 6 h
[39] = Solubility of the compound in phosphate buffer at pH 7.4 by HPLC analysis; settings: buffer
[40] = Half life in nude rat at 10 mg/kg, po; format: ADME, organism-based; design: dose 10 mg/kg, route oral; settings: in vivo
[41] = Half life in Beagle dog at 3 mg/kg, iv; format: ADME, organism-based, Canis lupus familiaris; design: dose 3 mg/kg, route intravenous; settings: in vivo
[42] = Oral bioavailability in nude rat at 10 mg/kg; format: ADME, organism-based; settings: in vivo
[43] = Metabolic stability in human liver microsomes at 5 uM after 20 mins; settings: liver microsomes
Mus musculus [44] = assay: Toxicity in SCID mouse xenografted with PTEN-deficient human PC3 cells at 150 mg/kg, po bid; format: organism-based, PC-3; design: dose 150 mg/kg, route oral; settings: in vivo
[45] = molecular target: T1, Phosphatidylinositol 4,5-bisphosphate 3-kinase catalytic subunit beta isoform; assay: Inhibition of N-terminal ploy-His-tagged human PI3Kbeta expressed in baculovirus-infected sf21 cells using PI(4,5)P2 as substrate after 15 mins by HTRF assay
Target sequence in this assay (P42338 whole entry, canonical isoform): as the sequence (P42338 whole entry, looked up, canonical isoform) above

Mus musculus [46] = assay: In vivo inhibition of PI3Kbeta in tumor of SCID mouse xenografted with PTEN-deficient human PC3 cells assessed as inhibition of Akt phosphorylation at S473 at 100 mg/kg, po up to 7 hrs; format: functional; settings: PC-3, 7 h
PC-3 = assay: Antitumor activity against PTEN-deficient human PC3 cells xenografted in SCID mouse assessed as tumor growth inhibition at 150 mg/kg, po bid measured on day 31; format: functional

C[C@H]1Cc2ccccc2N1C(=O)Cc1nc(N2CCOCC2)cc(=O)[nH]1 [SAR-260301]
half-life [1]: 4.5 h | AUC(0-inf) [2]: 610 ng·h/mL | half-life [3]: 2.5 h | IC50 [4]: > 1000 nM | AUC(0-inf) [5]: 6580 ng·h/mL | IC90 [6]: 2 nM | AUC(0-inf) [7]: 2410 ng·h/mL | Cmax [8]: 8960 ng/mL | bioavailability [9]: 67% | Vd [10]: 1 L/kg | IC50 [11]: > 10000 nM | remaining at 20 min, 5 µM [12]: 19% | Vd [13]: 8.1 L/kg | Cmax [14]: 4770 ng/mL | Cmax [15]: 848 ng/mL | half-life [16]: 1.4 h | bioavailability [17]: 55% | AUC(0-inf) [18]: 14000 ng·h/mL | Cmax [19]: 1200 ng/mL | Cmax [20]: 1870 ng/mL | Vd [21]: > 3 L/kg | Cmax [22]: 1460 ng/mL | AUC(0-inf) [23]: 600 ng·h/mL | concentration at 5 h [24]: > 1000 nM | fraction unbound [25]: 0.4 | Cmax [26]: 4920 ng/mL | Activity (Mus musculus [27]): Non-toxic | IC50 [28]: > 10000 nM | clearance [29]: 6.67 mL/min/kg | IC50 [30]: 60 nM | IC90 [31]: 2000 nM | EC50 (Mus musculus [32]): 4550 nM | Papp at 20 min, 5 µM [33]: 4.8 ×10⁻⁶ cm/s | Tmax [34]: 0.25 h | Activity (Mus musculus [35]): Non-toxic | AUC(0-inf) [36]: 864 ng·h/mL | concentration at 12 h [37]: > 100 nM | inhibition in vivo at 200 mg/kg (Mus musculus [38]): > 50% | solubility [39]: 928 µM (≈ 329 µg/mL) | half-life [40]: 6.9 h | half-life [41]: > 5 h | bioavailability [42]: 70% | remaining at 20 min, 5 µM [43]: 12% | Activity (Mus musculus [44]): Non-toxic | IC50 [45]: 23 nM | inhibition in vivo at 100 mg/kg (Mus musculus [46]): ≥ 50% | T/C (PC-3): 61%
